The structures appear in SMILES notation.

Experiment [1] concerns the target Fibroblast growth factor receptor 1 (Homo sapiens, UniProt P11362). In words: Selectivity interaction (KinomeScan (DiscoverX)) EUB0001619a FGFR1. The note with it: at 1 µM.
Experiment [2] has as its target Tyrosine-protein kinase BTK (Homo sapiens, UniProt Q06187). The experiment in a line: Selectivity interaction (SelectScreen profiling (Invitrogen)) EUB0000607a BTK. The note with it: at 2 µM.
In experiment [3] the target is T1, Serine/threonine-protein kinase Sgk3 (Homo sapiens) (UniProt Q96BR1).
T1 sequence (whole entry): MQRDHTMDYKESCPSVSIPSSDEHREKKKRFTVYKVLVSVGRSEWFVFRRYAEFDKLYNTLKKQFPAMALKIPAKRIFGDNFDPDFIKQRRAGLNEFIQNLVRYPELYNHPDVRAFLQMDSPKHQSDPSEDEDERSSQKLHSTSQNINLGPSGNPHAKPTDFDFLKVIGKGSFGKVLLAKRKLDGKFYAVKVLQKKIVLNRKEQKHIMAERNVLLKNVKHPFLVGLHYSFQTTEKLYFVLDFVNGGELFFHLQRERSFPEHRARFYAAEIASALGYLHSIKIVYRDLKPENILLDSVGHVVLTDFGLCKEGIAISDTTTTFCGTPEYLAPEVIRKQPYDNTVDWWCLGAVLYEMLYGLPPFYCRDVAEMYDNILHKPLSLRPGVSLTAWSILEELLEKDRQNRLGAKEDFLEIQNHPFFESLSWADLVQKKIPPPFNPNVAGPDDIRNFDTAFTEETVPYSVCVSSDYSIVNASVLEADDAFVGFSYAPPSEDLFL
The experiment in a line: Selectivity interaction (ActivX KiNativ screen (kinase selectivity in THP-1 cell lysates)) EUB0000639a SGK3. The note with it: lysate, at 1 µM. In kind it is subcellular.

Experiment [4] has as its target Cyclin-dependent kinase 18 (Homo sapiens) (UniProt Q07002). The experiment in a line: Selectivity interaction (KinomeScan (DiscoverX)) EUB0000045b CDK18.
Another experiment addresses Insulin receptor (Homo sapiens, UniProt P06213). The experiment in a line: Selectivity interaction (ProQinase) EUB0000171b INSR. The note with it: at 1 µM.
The target of experiment [5] is Histone-lysine N-methyltransferase SUV39H2 (Homo sapiens) (UniProt Q9H5I1). In words: Selectivity interaction (Transferase panel (protein, RNA, and DNA methyltransferases. and EP300 (acetyltransferase))) EUB0000270b SUV39H2.
Experiment [6] has as its target T2, Discoidin domain-containing receptor 2 (Homo sapiens) (UniProt Q16832).
T2 sequence (whole entry): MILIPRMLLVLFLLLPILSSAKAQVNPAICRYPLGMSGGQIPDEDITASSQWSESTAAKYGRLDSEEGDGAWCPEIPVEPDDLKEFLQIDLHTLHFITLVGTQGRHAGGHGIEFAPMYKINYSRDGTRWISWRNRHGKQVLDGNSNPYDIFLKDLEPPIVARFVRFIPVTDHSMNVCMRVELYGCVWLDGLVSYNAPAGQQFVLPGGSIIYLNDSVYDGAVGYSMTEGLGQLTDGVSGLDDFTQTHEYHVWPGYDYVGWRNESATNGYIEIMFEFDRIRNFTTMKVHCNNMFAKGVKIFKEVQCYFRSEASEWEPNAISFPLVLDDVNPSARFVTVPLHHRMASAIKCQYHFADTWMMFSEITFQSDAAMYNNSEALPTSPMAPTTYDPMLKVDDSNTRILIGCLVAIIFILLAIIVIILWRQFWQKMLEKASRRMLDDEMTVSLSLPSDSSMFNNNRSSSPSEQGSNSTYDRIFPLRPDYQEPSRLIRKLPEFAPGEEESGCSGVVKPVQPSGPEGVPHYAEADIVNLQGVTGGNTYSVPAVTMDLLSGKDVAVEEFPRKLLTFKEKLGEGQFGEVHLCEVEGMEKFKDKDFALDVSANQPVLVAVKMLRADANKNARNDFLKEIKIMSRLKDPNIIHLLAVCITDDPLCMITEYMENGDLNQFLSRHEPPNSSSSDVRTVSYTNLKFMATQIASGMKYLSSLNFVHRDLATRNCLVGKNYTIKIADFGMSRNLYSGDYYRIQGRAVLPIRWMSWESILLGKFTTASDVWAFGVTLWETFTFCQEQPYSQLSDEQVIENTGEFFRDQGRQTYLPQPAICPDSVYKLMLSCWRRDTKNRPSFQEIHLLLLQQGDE
The experiment in a line: Selectivity interaction (KinomeScan (DiscoverX)) EUB0000229b DDR2. The note with it: at 10 µM.

Experiment [7] addresses Serine/threonine-protein kinase pim-2 (Homo sapiens, UniProt Q9P1W9). In words: Selectivity interaction (KinomeScan (DiscoverX)) EUB0000229b PIM2. The settings on record: at 10 µM.
In experiment [8] the target is Ribosomal protein S6 kinase beta-1 (Homo sapiens, UniProt P23443). The experiment in a line: Selectivity interaction (Kinase panel (KiNativ target engagement assay in Jurkat cells)) EUB0001635a RPS6KB1. The settings on record: at 1 µM. In kind it is cell-based.
Sequence of Ribosomal protein S6 kinase beta-1 (P23443 whole entry, looked up): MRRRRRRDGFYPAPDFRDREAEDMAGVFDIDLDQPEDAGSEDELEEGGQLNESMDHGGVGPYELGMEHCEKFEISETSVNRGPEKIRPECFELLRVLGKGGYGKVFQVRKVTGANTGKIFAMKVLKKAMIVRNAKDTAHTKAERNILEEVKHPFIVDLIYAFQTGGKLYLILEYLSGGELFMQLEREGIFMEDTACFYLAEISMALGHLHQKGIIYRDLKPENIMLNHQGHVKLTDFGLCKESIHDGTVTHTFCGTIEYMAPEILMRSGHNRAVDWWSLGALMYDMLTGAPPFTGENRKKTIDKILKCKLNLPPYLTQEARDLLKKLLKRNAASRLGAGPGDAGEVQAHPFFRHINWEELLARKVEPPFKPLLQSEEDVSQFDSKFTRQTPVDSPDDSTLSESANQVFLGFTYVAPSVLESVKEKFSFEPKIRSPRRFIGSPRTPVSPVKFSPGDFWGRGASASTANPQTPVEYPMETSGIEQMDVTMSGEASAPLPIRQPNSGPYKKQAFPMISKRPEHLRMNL

Sequence of Cyclin-dependent kinase 18 (Homo sapiens) (Q07002 whole entry): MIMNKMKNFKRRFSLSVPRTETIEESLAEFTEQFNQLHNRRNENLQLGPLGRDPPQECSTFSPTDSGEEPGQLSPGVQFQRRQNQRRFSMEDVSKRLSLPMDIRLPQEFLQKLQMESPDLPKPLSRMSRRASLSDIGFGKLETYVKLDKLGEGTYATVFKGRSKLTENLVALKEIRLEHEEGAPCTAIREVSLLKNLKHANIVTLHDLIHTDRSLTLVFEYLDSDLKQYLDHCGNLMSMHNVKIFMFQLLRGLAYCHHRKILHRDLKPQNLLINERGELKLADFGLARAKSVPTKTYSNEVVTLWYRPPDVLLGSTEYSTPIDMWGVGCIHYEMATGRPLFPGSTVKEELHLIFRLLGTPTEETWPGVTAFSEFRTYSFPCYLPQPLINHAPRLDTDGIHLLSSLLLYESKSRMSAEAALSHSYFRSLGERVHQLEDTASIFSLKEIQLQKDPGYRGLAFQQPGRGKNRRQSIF
Sequence of Histone-lysine N-methyltransferase SUV39H2 (Homo sapiens) (Q9H5I1 whole entry, the tested form may be a part): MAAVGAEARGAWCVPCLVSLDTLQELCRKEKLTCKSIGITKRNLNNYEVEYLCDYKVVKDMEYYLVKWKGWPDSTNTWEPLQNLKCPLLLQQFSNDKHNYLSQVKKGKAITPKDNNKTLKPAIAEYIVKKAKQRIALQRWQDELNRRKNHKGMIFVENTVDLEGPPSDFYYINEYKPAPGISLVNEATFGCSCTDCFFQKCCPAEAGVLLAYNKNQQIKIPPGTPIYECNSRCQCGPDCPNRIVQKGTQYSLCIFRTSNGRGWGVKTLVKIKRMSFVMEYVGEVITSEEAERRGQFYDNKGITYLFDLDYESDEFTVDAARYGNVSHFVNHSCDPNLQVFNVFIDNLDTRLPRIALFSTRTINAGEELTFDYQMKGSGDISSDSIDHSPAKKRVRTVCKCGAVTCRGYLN
Sequence of Serine/threonine-protein kinase pim-2 (Q9P1W9 whole entry, looked up): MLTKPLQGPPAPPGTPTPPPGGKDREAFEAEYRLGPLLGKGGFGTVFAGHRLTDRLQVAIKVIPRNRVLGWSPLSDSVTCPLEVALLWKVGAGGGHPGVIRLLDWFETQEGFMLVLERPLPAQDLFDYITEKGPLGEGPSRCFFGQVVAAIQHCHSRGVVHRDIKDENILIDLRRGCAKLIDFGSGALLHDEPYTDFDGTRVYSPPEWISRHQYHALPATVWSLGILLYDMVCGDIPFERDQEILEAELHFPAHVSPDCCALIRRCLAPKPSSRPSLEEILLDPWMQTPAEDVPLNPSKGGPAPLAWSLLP
Sequence of Fibroblast growth factor receptor 1 (P11362 22-822 limits assumed): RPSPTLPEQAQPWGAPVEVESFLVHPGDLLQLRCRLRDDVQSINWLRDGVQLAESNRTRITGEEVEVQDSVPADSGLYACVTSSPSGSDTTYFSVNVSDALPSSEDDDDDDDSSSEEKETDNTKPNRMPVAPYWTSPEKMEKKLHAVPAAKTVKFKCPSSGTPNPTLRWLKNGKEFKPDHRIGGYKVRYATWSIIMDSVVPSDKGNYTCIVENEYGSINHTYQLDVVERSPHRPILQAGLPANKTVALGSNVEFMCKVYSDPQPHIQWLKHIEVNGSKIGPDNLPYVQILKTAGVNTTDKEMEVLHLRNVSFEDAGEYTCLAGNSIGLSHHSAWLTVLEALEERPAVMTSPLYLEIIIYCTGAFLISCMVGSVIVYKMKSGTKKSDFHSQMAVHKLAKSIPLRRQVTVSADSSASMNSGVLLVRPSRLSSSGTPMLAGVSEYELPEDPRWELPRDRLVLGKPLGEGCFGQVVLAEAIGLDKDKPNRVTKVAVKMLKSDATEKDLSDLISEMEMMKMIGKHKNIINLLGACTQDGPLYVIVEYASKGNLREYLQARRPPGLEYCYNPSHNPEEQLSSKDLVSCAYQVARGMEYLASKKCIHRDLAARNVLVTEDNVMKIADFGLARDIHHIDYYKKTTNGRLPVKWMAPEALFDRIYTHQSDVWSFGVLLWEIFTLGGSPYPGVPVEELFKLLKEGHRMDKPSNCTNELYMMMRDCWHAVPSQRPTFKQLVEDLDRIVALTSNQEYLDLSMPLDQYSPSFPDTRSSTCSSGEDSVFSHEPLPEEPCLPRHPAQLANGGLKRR
Sequence of Tyrosine-protein kinase BTK (Q06187 whole entry): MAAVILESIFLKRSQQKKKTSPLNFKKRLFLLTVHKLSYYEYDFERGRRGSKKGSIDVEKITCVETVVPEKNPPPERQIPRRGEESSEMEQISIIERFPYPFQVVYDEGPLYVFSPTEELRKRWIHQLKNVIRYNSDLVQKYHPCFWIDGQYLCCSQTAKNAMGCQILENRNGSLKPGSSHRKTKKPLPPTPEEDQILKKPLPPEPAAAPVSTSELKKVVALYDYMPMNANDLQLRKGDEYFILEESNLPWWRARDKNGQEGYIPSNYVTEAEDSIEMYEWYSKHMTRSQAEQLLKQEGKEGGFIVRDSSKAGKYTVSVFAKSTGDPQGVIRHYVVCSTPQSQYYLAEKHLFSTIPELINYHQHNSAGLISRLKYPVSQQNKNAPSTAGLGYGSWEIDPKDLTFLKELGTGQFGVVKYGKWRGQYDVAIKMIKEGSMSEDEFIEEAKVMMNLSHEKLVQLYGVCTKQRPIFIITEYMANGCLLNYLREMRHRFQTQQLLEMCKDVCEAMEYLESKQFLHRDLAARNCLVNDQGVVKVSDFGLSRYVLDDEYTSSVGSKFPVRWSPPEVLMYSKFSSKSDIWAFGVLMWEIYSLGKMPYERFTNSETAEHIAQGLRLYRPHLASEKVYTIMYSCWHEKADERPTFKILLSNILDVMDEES
Sequence of Insulin receptor (P06213 28-758 limits assumed): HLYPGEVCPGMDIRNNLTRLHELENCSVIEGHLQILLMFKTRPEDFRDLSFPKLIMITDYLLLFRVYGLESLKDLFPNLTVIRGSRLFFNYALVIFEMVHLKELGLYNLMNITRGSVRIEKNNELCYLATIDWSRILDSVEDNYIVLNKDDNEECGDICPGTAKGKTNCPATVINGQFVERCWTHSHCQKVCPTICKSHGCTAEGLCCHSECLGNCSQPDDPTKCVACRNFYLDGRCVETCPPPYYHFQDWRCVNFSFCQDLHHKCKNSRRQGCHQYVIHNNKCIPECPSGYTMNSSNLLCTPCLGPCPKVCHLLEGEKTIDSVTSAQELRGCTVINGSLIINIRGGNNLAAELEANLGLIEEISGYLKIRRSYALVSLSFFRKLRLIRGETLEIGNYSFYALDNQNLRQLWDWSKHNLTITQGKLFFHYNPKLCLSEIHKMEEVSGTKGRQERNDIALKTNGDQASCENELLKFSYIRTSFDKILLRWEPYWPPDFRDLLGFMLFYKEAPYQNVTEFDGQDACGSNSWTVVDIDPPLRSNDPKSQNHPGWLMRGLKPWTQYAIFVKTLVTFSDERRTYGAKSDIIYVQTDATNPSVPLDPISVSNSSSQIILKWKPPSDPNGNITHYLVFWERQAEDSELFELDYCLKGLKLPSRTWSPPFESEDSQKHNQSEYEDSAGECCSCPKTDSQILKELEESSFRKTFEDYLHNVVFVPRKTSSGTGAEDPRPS
Sequence of Insulin receptor (P06213 763-1382 limits assumed): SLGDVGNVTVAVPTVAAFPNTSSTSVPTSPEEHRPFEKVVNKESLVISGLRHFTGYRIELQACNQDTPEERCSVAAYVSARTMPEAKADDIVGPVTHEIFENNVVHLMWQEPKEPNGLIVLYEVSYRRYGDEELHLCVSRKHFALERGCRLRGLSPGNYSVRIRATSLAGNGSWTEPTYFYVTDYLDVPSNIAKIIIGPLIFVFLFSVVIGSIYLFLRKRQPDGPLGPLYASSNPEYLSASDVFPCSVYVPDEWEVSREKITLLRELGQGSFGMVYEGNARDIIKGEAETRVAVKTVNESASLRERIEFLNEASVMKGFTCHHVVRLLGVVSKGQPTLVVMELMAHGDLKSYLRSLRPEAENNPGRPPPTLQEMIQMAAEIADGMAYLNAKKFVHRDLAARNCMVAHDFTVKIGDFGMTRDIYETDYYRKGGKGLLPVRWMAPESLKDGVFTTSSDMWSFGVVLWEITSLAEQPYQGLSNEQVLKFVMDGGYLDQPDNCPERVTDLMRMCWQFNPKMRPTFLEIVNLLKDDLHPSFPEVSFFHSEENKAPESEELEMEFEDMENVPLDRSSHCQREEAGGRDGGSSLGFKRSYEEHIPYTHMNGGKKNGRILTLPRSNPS

`N#Cc1cccc(-c2c[nH]c3ncnc(N4CCOCC4)c23)c1` showed a % of control in [1] of 100%.
Regarding `CNC(=O)Nc1ccc(-c2nc(N3CC4CCC(C3)O4)c3cnn(C4CCC5(CC4)OCCO5)c3n2)cc1`, the % of inhibition in [2] was 3%.
`CC[C@@H]1[C@H](F)C(=O)N[C@@H]1COc1nccc2cc(C(N)=O)c(OC)cc12` [ZIMLOVISERTIB]: the % of inhibition in experiment [3] was -1%.
With `C=CC(=O)Nc1cc(-n2c(=O)ccc3cnc4ccc(-c5ccc(NS(C)(=O)=O)cc5)cc4c32)ccc1C`, the % of control was 83% in experiment [4] (at 1 µM) and 88% in [4] (at 10 µM).
`C=CC(=O)Nc1cccc(C(=O)Nc2ccc(Nc3cc(-c4[nH]c(SC)nc4C)ccn3)cc2)c1` returned a % of control on Insulin receptor of 81%.
With `Cc1cc(CN)cc(C)c1-c1ncn(C)c1-c1cncn1C`, the % activity in experiment [5] (at 1 µM) is more than 90%; in [5] (at 10 µM) it was more than 80%.
In the case of `COc1cc(N(C)c2ccnc3ccc(C(F)(F)F)cc23)cc(OC)c1OC`, the figures for the % binding in experiment [6] and in experiment [7] were 93% and 100%, respectively.
Consider `C=CC(=O)Nc1ccc(C(=O)Nc2[nH]nc3c2CN(C(=O)N[C@H](CN(C)C)c2ccccc2)C3(C)C)cc1`, for which the % of engagement in experiment [8] (Selectivity number of off-targets 0.0, Selectivity number of targets 233.0, Source Knowledge https://www.sciencedirect.com/science/article/pii/S2451945619300674?via%3Dihub) is 7.5%; in [8], -9.4%.

For the origin of these results see ChEMBL document CHEMBL5465560, “Selectivity Literature for EUbOPEN Chemogenomic Library” (2024).
